Patent US20230097253A1, “NOVEL QUINAZOLINE COMPOUND AS THERAPEUTIC AGENT FOR METABOLIC DISORDERS” (BIOWAY., INC, priority 2020, published 2023)

Assays:
[1] = system: Huh7 cells induced with inflammatory response; test: Gene expression in liver cells induced with inflammatory response (qRT-PCR); type: cell-based; conditions: Huh7 cells pretreated with IL-1β; 0.5, 2.5, 10 μM; FIG. 11, FIG. 12
Method: After culturing the Huh-7 cells to grow to a confluency of 80-90% in a 6 well plate, except for the control, the cells were pretreated with IL-1β and then treated with BW-3290, which is the compound of the present invention, diluted in the culture medium to concentrations of 0.5 μM, 2.5 μM, and 10 μM, so as to induce an inflammatory response.
Additionally, the total RNA was extracted using the RNeasy RNA isolation kit (Qiagen, Hilden, Germany).
Additionally, 10 μL of […] per mL of a cell lysis solution was additionally prepared.
Additionally, the cells were washed twice with cold PBS and 350 μL of RNA lysis buffer was added thereto.
Additionally, 70% EtOH was added to the lysate in an equal volume, mixed by pipetting, transferred to a spin column, and centrifuged at 8,000×g for 15 seconds.
Additionally, the flow-through solution was removed and 700 μL of a wash solution was added to the spin column, centrifuged at 8,000×g, and the flow-through solution was removed.
Additionally, 500 μL of the wash buffer containing EtOH was added to the spin column and centrifuged at 8,000×g for 2 minutes (repeated 2 times)
Additionally, the flow-through solution was discarded and centrifuged once more to completely dry the spin column membrane.
Additionally, the spin column was placed into a new Eppendorf tube and 50 μL of RNase-free water was added directly to the spin column membrane and centrifuged at 8,000×g for 1 minute to dissolve and isolate the RNA.
Additionally, RNA concentration was measured at OD 260 nm using the Nanophotometer N60 (Implen, Munich, Germany)
Additionally, 1 μg of total RNA was reverse transcribed in the first strand synthesis buffer containing oligo (dT) primer (6 μg/mL), random primer (3 μg/mL), 50 U of reverse transcriptase, 4 mM dNTP, […], 5 mM magnesium chloride (MgCl2), and 40 U of RNase inhibitor.
Additionally, cDNA was synthesized using a polymerase chain reaction (PCR) device which was set to undergo denaturation at 95° C. for 5 minutes, cDNA synthesis at 42° C. for 50 minutes, and denaturation at 95° C. for 5 minutes. […]

SIRT1 = molecular target: T1, SIRT1 (Homo sapiens, UniProt Q96EB6); test: Measurement of SIRT1 activity (Sirt1 direct fluorescent screening assay kit); type: biochemical; conditions: compared with the control (RSV, resveratrol); FIG. 14
T1 construct: purchased Cayman
T1 sequence (Q96EB6 1-747): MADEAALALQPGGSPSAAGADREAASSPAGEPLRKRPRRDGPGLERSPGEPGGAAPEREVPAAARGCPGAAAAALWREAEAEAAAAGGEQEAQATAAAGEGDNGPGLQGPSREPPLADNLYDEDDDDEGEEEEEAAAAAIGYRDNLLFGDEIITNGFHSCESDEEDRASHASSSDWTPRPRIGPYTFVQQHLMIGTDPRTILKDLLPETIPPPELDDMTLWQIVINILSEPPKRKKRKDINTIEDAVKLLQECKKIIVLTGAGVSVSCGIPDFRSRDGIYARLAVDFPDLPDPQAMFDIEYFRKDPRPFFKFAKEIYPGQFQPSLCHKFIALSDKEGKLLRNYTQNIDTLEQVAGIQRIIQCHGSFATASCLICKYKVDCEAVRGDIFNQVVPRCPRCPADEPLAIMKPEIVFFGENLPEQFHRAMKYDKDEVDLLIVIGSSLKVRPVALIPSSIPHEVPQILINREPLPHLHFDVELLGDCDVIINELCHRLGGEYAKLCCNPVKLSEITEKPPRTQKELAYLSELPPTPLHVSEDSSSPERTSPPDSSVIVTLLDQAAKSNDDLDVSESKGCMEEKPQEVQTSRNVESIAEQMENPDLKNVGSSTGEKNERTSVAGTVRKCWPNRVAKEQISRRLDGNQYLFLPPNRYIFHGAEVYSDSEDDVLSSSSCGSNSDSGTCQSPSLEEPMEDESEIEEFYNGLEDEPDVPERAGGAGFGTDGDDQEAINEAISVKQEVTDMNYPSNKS
Method: All of the materials were provided from Sirt1 direct fluorescent screening assay kit (Cayman, Ann Arbor, Mich., USA).
SIRT1, p53 conjugated aminomethylcoumarin (AMC) protein, and 3 mM NAD+ were added to diluted assay buffer (50 mM Tris-HCl, pH 8.0, 137 mM NaCl, 2.7 mM KCl, and 1 mM MgCl2).
Three 100% initial activity wells among the 96-wells were added with 25 μL of assay buffer, 5 μL of diluted SIRT1, and 5 μL of a solvent.
Three background wells among the 96-wells were added with 30 μL of assay buffer and […].
Three sample wells among the 96-wells were added with 25 μL of assay buffer, 5 μL of diluted SIRT1, and 5 μL of a diluted test compound. The final DMSO concentration was lower than 2%. […]
After removing the plate cover, the plate was read with Cytation 5 using an excitation wavelength at 360 nm and an emission wavelength at 450 nm.
Then, the average level of fluorescence for each sample was measured.
The fluorescence level of the background well was subtracted from the fluorescence level of the 100% starting active well and that of the sample well.
To determine the percentage of each sample, each sample value was subtracted from the 100% initial activity value, divided by the 100% initial activity value, and multiplied by 100, and the resulting value was added to 100 and expressed as a percentage. […]

CC(C)C(Nc1ncnc2nc[nH]c12)c1nc2cccc(Cl)c2c(=O)n1-c1ccccc1 (stereo not shown) [BW-3290, 2-(1-((7H-purin-6-yl)amino)-2-methylpropyl)-5-chloro-3-phenylquinazolin-4(3H)-one]
gene expression level of IL-6 [1]: decreased in a concentration-dependent manner
gene expression level of IL-8 [1]: decreased in a concentration-dependent manner
gene expression level of TNF-α [1]: decreased in a concentration-dependent manner
SIRT1 activity level (SIRT1): further increases
